Test results: ChEMBL document CHEMBL4665640, “Structure-Activity Relationship Studies of 3- or 4-Pyridine Derivatives of DS-6930” (ACS Med Chem Lett, 2019)

Key:
[1] = Microsomal stability in monkey liver microsomes assessed as parent compound remaining after 30 mins; format: ADME, Macaca mulatta, Microsome; conditions: rhesus monkey, read-out: Stabilty
[2] = Clearance in cynomolgus monkey at 1 mg/kg, iv by LC-MS/MS analysis; format: ADME, organism-based, Macaca fascicularis; conditions: in vivo
[3] = Bioavailability in cynomolgus monkey at 1 mg/kg, iv by LC-MS/MS analysis; format: ADME, organism-based, Macaca fascicularis; conditions: in vivo
[4] = 1-octanol/phosphate buffer distribution coefficient, log D of the compound at pH 7.4 measured after 30 mins by HPLC-LC/MS based shake flask method; format: physicochemical
[5] = Microsomal stability in human liver microsomes assessed as parent compound remaining after 30 mins; format: ADME, Microsome; conditions: read-out: Stabilty
[6] = Cmax in mouse at 3 mg/kg, po by LC-MS/MS analysis; format: ADME, organism-based; set-up: route oral, dose 3 mg/kg; conditions: in vivo
[7] = Microsomal stability in rat liver microsomes assessed as parent compound remaining after 30 mins; format: ADME, Microsome; conditions: read-out: Stabilty
[8] = Cmax in cynomolgus monkey at 3 mg/kg, po by LC-MS/MS analysis; format: ADME, organism-based, Macaca fascicularis; set-up: route oral, dose 3 mg/kg; conditions: in vivo
[9] = Tmax in cynomolgus monkey at 3 mg/kg, po by LC-MS/MS analysis; format: ADME, organism-based, Macaca fascicularis; conditions: in vivo
[10] = Half life in cynomolgus monkey at 3 mg/kg, po by LC-MS/MS analysis; format: ADME, organism-based, Macaca fascicularis; conditions: in vivo
[11] = AUClast in cynomolgus monkey at 3 mg/kg, po by LC-MS/MS analysis; format: ADME, organism-based, Macaca fascicularis; set-up: time 0 - last, route oral, dose 3 mg/kg; conditions: in vivo
[12] = Volume of distribution at steady state in cynomolgus monkey at 1 mg/kg, iv by LC-MS/MS analysis; format: ADME, organism-based, Macaca fascicularis; conditions: in vivo, read-out: Vdss
[13] = Cmax in rat at 3 mg/kg, po by LC-MS/MS analysis; format: ADME, organism-based; set-up: route oral, dose 3 mg/kg; conditions: in vivo
[14] = Tmax in rat at 3 mg/kg, po by LC-MS/MS analysis; format: ADME, organism-based; conditions: in vivo
[15] = Tmax in mouse at 3 mg/kg, po by LC-MS/MS analysis; format: ADME, organism-based; conditions: in vivo
[16] = Half life in rat at 3 mg/kg, po by LC-MS/MS analysis; format: ADME, organism-based; conditions: in vivo
[17] = Half life in mouse at 3 mg/kg, po by LC-MS/MS analysis; format: ADME, organism-based; conditions: in vivo
[18] = AUClast in rat at 3 mg/kg, po by LC-MS/MS analysis; format: ADME, organism-based; set-up: route oral, time 0 - last, dose 3 mg/kg; conditions: in vivo
[19] = AUClast in mouse at 3 mg/kg, po by LC-MS/MS analysis; format: ADME, organism-based; set-up: time 0 - last, route oral, dose 3 mg/kg; conditions: in vivo
[20] = Bioavailability in rat at 1 mg/kg, iv by LC-MS/MS analysis; format: ADME, organism-based; conditions: in vivo
[21] = Bioavailability in mouse at 1 mg/kg, iv by LC-MS/MS analysis; format: ADME, organism-based; conditions: in vivo
[22] = Clearance in rat at 1 mg/kg, iv by LC-MS/MS analysis; format: ADME, organism-based; conditions: in vivo
[23] = Clearance in mouse at 1 mg/kg, iv by LC-MS/MS analysis; format: ADME, organism-based; conditions: in vivo
[24] = Volume of distribution at steady state in rat at 1 mg/kg, iv by LC-MS/MS analysis; format: ADME, organism-based; conditions: in vivo, read-out: Vdss
[25] = Volume of distribution at steady state in mouse at 1 mg/kg, iv by LC-MS/MS analysis; format: ADME, organism-based; conditions: in vivo, read-out: Vdss

SMILES: Cc1cnc(Oc2ccc3nc(COc4cccc(C(=O)O)c4)n(C)c3c2)c(C)c1
- remaining at 0.5 h [1]: 80%
- clearance [2]: 2.06 mL/min/kg
- bioavailability [3]: 89%

SMILES: CCc1cc(Oc2ccc3nc(COc4cccc(C(=O)O)c4)n(C)c3c2)ccn1
- logD at 0.5 h [4]: 1.3
- remaining at 0.5 h [5]: 88%

SMILES: Cc1ccc(Oc2ccc3nc(COc4cccc(C(=O)O)c4)n(C)c3c2F)c(C)n1
- Cmax [6]: 1290 ng/mL
- logD at 0.5 h [4]: 1.6
- remaining at 0.5 h [5]: 100%
- remaining at 0.5 h [7]: 100%
- remaining at 0.5 h [1]: 100%
- Cmax [8]: 28800 ng/mL
- Tmax [9]: 0.5 h
- half-life [10]: 9.34 h
- AUC(0-t) [11]: 128000 ng·h/mL
- Vd [12]: 0.15 L/kg
- clearance [2]: 0.4 mL/min/kg
- bioavailability [3]: 76%
- Cmax [13]: 3490 ng/mL
- Tmax [14]: 2.25 h
- Tmax [15]: 0.5 h
- half-life [16]: 3.45 h
- half-life [17]: 4.35 h
- AUC(0-t) [18]: 28000 ng·h/mL
- AUC(0-t) [19]: 2070 ng·h/mL
- bioavailability [20]: 74%
- bioavailability [21]: 21%
- clearance [22]: 1.29 mL/min/kg
- clearance [23]: 4.91 mL/min/kg
- Vd [24]: 0.27 L/kg
- Vd [25]: 0.62 L/kg

SMILES: COc1nc(C)ccc1Oc1ccc2nc(COc3cccc(C(=O)O)c3)n(C)c2c1
- logD at 0.5 h [4]: 1.4

SMILES: Cc1cncc(Oc2ccc3nc(COc4cccc(C(=O)O)c4)n(C)c3c2)c1
- logD at 0.5 h [4]: 1

SMILES: Cc1ccc(Oc2ccc3nc(COc4cccc(C(=O)O)c4)n(C)c3c2C)c(C)n1
- logD at 0.5 h [4]: 1.8

SMILES: Cc1ccc(Oc2cc(C)c3nc(COc4cccc(C(=O)O)c4)n(C)c3c2)c(C)n1
- logD at 0.5 h [4]: 1.7
- remaining at 0.5 h [5]: 100%

SMILES: CCOc1cc(Oc2ccc(C)nc2C)cc2c1nc(COc1cccc(C(=O)O)c1)n2C
- logD at 0.5 h [4]: 1.6
- remaining at 0.5 h [5]: 100%

SMILES: Cc1cc(Oc2ccc3nc(COc4cccc(C(=O)O)c4)n(C)c3c2)ccn1
- logD at 0.5 h [4]: 0.9
- remaining at 0.5 h [5]: 100%

SMILES: COc1cncc(Oc2ccc3nc(COc4cccc(C(=O)O)c4)n(C)c3c2)c1
- logD at 0.5 h [4]: 0.9

SMILES: Cc1ccc(Oc2ccc3nc(COc4cccc(C(=O)O)c4)n(C)c3c2)c(C)n1
- logD at 0.5 h [4]: 1.3
- remaining at 0.5 h [5]: 100%
- remaining at 0.5 h [7]: 100%
- remaining at 0.5 h [1]: 100%

SMILES: CCOc1cc(Oc2ccnc(OC)c2)cc2c1nc(COc1cccc(C(=O)O)c1)n2C
- logD at 0.5 h [4]: 1.7
- remaining at 0.5 h [5]: 100%

SMILES: COc1cc(Oc2cc(C)c3nc(COc4cccc(C(=O)O)c4)n(C)c3c2)ccn1
- logD at 0.5 h [4]: 1.7
- remaining at 0.5 h [5]: 100%

SMILES: Cc1ccc(Oc2ccc3nc(COc4cccc(C(=O)O)c4)n(C)c3c2)cn1
- logD at 0.5 h [4]: 0.8
- remaining at 0.5 h [5]: 87%

SMILES: COc1cc(Oc2ccc3nc(COc4cccc(C(=O)O)c4)n(C)c3c2)ccn1
- logD at 0.5 h [4]: 1.3
- remaining at 0.5 h [5]: 98%
- remaining at 0.5 h [7]: 100%
- remaining at 0.5 h [1]: 100%

SMILES: COc1cc(Oc2ccc3nc(COc4cccc(C(=O)O)c4)n(C)c3c2F)ccn1
- logD at 0.5 h [4]: 1.7
- remaining at 0.5 h [5]: 97%

SMILES: COc1cc(Oc2cc(OC(C)C)c3nc(COc4cccc(C(=O)O)c4)n(C)c3c2)ccn1
- logD at 0.5 h [4]: 2
- remaining at 0.5 h [5]: 97%
- remaining at 0.5 h [7]: 91%
- remaining at 0.5 h [1]: 94%

SMILES: COc1cc(Oc2ccc3nc(COc4cccc(C(=O)O)c4)n(C)c3c2)cc(C)n1
- logD at 0.5 h [4]: 1.7
- remaining at 0.5 h [5]: 96%
- remaining at 0.5 h [7]: 96%
- remaining at 0.5 h [1]: 85%

SMILES: Cc1ccncc1Oc1ccc2nc(COc3cccc(C(=O)O)c3)n(C)c2c1
- logD at 0.5 h [4]: 0.8
- remaining at 0.5 h [5]: 100%

SMILES: Cc1ccc(Oc2cc(OC(C)C)c3nc(COc4cccc(C(=O)O)c4)n(C)c3c2)c(C)n1
- logD at 0.5 h [4]: 1.9
- remaining at 0.5 h [5]: 91%
- remaining at 0.5 h [7]: 65%
- remaining at 0.5 h [1]: 81%

SMILES: CCCOc1cc(Oc2ccc(C)nc2C)cc2c1nc(COc1cccc(C(=O)O)c1)n2C
- logD at 0.5 h [4]: 2.2

SMILES: Cc1cc(Oc2ccc3nc(COc4cccc(C(=O)O)c4)n(C)c3c2)cc(C)n1
- logD at 0.5 h [4]: 1

SMILES: COc1cc(Oc2ccc3nc(COc4cccc(C(=O)O)c4)n(C)c3n2)cc(C)n1
- logD at 0.5 h [4]: 1.2
- remaining at 0.5 h [5]: 91%
- remaining at 0.5 h [7]: 98%
- remaining at 0.5 h [1]: 100%
- Cmax [8]: 500 ng/mL
- Tmax [9]: 4.5 h
- half-life [10]: 7.3 h
- AUC(0-t) [11]: 5120 ng·h/mL
- Vd [12]: 0.35 L/kg
- clearance [2]: 2.08 mL/min/kg
- bioavailability [3]: 18%

SMILES: Cc1ncccc1Oc1ccc2nc(COc3cccc(C(=O)O)c3)n(C)c2c1
- logD at 0.5 h [4]: 1
- remaining at 0.5 h [5]: 98%

SMILES: COc1ncc(Oc2ccc3nc(COc4cccc(C(=O)O)c4)n(C)c3c2)cc1C
- logD at 0.5 h [4]: 2
- remaining at 0.5 h [5]: 100%
- remaining at 0.5 h [7]: 82%
- remaining at 0.5 h [1]: 98%

SMILES: COc1ncccc1Oc1ccc2nc(COc3cccc(C(=O)O)c3)n(C)c2c1
- logD at 0.5 h [4]: 0.9

SMILES: Cc1cnc(Oc2cc(OC(C)C)c3nc(COc4cccc(C(=O)O)c4)n(C)c3c2)c(C)c1
- logD at 0.5 h [4]: 2
- remaining at 0.5 h [5]: 96%
- remaining at 0.5 h [7]: 13%
- remaining at 0.5 h [1]: 84%

SMILES: CCOc1cc(Oc2ccc3nc(COc4cccc(C(=O)O)c4)n(C)c3c2)ccn1
- logD at 0.5 h [4]: 1.8
- remaining at 0.5 h [5]: 94%

SMILES: COc1ccc(Oc2ccc3nc(COc4cccc(C(=O)O)c4)n(C)c3c2)c(C)n1
- logD at 0.5 h [4]: 1.7

SMILES: COc1ccc(Oc2ccc3nc(COc4cccc(C(=O)O)c4)n(C)c3c2)cn1
- logD at 0.5 h [4]: 1.3

SMILES: Cn1c(COc2cccc(C(=O)O)c2)nc2ccc(Oc3ccnc(Cl)c3)cc21
- logD at 0.5 h [4]: 1.1

SMILES: COc1cc(Oc2ccc(C)nc2C)cc2c1nc(COc1cccc(C(=O)O)c1)n2C
- logD at 0.5 h [4]: 1.2

SMILES: Cn1c(COc2cccc(C(=O)O)c2)nc2ccc(Oc3cccnc3)cc21
- logD at 0.5 h [4]: 0.5
- remaining at 0.5 h [5]: 100%

SMILES: CCOc1cc(Oc2ncc(C)cc2C)cc2c1nc(COc1cccc(C(=O)O)c1)n2C
- logD at 0.5 h [4]: 1.7
- remaining at 0.5 h [5]: 100%
